Results reported in patent US4206225A, “2,10-Disubstituted dibenzo[b,d]pyrans and benzo[c]quinolines” (priority 1978, dated 1980).
Like-named read-outs stand apart in the source and are kept apart here.

Tests used:
[1] = tested on: phenylbenzoquinone irritant-induced writhing in mice; experiment: Suppression of phenylbenzoquinone (PBQ) irritant-induced writhing; type: in vivo, mice (Carworth Farms CF-1); settings: Mus musculus, read-out: ED50 in PBQ Writhing Test
Experimental: The analgesic properties of the compounds of this invention are determined by tests using thermal nociceptive stimuli, such as the mouse tail flick procedure, or chemical nociceptive stimuli, such as measuring the ability of a compound to suppress phenylbenzoquinone irritant-induced writhing in mice. These tests and others are described below.
Suppression of Phenylbenzoquinone Irritant-Induced Writhing
Groups of 5 Carworth Farms CF-1 mice are pretreated subcutaneously or orally with saline, morphine, codine or the test compound. Twenty minutes (if treated subcutaneously) or fifty minutes (if treated orally) later, each group is treated with intraperitoneal injection of phenylbenzoquinone, an irritant known to produce abdominal contractions. The mice are observed for 5 minutes for the presence or absence of writhing starting 5 minutes after the injection of the irritant. MPE50 's of the drug pretreatments in blocking writhing are ascertained.
(§1) Results of the above tests are recorded as percent maximum possible effect (% MPE). The % MPE of each group is statistically compared to the % MPE of the standard and the predrug control values. The % MPE is calculated as follows: [formula]
(§2) The analgesic activity is reported in terms of MPE50, the dose at which half of the maximal possible analgesic effect is observed in a given test.
The analgesic activity of several compounds of the invention in the above described test for suppresion of phenylbenzoquinone (PBQ) irritant-inducedwrithing are set forth below in Table I.

rabbits = settings: 20 mg./kg.; cited from earlier work
animal pharmacology = settings: in vivo; cited from earlier work
[2] = tested on: thermal nociceptive stimulus (heat applied to the tail) in mice; experiment: Mouse tail flick analgesic testing; type: in vivo; settings: s.c.
Source text: (b) Mouse Tail Flick Analgesic Testing
Tail flick testing in mice is modified after D'Amour and Smith, J. Pharmacol. Exp. Ther., 72, 74-79 (1941), using controlled high intensity heat applied to the tail. Each mouse is placed in a snug-fitting metal cylinder, with the tail protruding through one end. This cylinder is arranged so that the tail lies flat over a concealed heat lamp. At the onset of testing, an aluminum flag over the lamp is drawn back, allowing the light beam to pass through the slit and focus onto the end of the tail. A timer is simultaneously activated. The latency of a sudden flick of the tail is ascertained. Untreated mice usually react within 3-4 seconds after exposure to the lamp. The end point for protection is 10 seconds. Each mouse is tested at 0.5 and 2 hours after treatment with morphine and the test compound. Morphine has an MPE5 50 of 3.2-5.6 mg./kg. (s.c.).
as §1, §2

[3] = tested on: thermal nociceptive stimulus (hot plate, 57° C.) in mice; experiment: Mouse hot plate analgesic testing; type: in vivo; settings: s.c.
Experimental: (a) Mouse Hot Plate Analgesic Testing
The method used is modified after Woolfe and MacDonald, J. Pharmacol. Exp. Ther., 80, 300-307 (1944). A controlled heat stimulus is applied to the feet of mice on a 1/8" think aluminum plate. A 250 watt reflector infrared heat lamp is place under the bottom of the aluminum plate. A thermal regulator, connected to thermistors on the plate surface, programs the heat lamp to maintain a constant temperature of 57° C. Each mouse dropped into a glass cylinder (61/2" diameter) resting on the hot plate, and timing is begun when the animal's feet touch the plate. At 0.5 and 2 hours after treatment with the test compound the mouse is observed for the first "flicking" movements of one or both hind feet or until 10 seconds elapse without such movements. Morphine has an MPE50 =4-5.6 mg./kg. (s.c.).
as §1, §2

[4] = sc, subcutaneous, twenty minutes pretreatment
[5] = oral, fifty minutes pretreatment

CC(CCCc1ccccc1)c1cc2c(cc1O)C1C(O)CCCC1C(C)(C)O2 (mixture of isomers) [Example 11, dl-cis-6a,7,8,9,10a-Hexahydro-2,10-dihydroxy-6,6-dimethyl-3-(1-methyl-4-phenylbutyl)-6H-dibenzo[b,d]pyran]
ED50 [1, 4]: 27 mg/kg

CC(CCCc1ccccc1)c1cc2c(cc1O)C1=C(CCCC1)C(C)(C)O2 (racemic) [Example 16, dl-7,8,9,10-Tetrahydro-2-hydroxy-6,6-dimethyl-3-(1-methyl-4-phenylbutyl)-6H-dibenzo[b,d]pyran]
ED50 [1, 5]: 10 mg/kg

CC(CCCc1ccccc1)c1cc2c(cc1O)C1=C(CCCC1O)C(C)(C)O2 (racemic) [Example 21, dl-7,8,9,10-Tetrahydro-2,10α-dihydroxy-6,6-dimethyl-3-(1-methyl-4-phenylbutyl)-6H-dibenzo[b,d]pyran]
ED50 [1, 5]: 10 mg/kg

CC(CCCc1ccccc1)c1cc2c(cc1O)[C@@H]1C(=O)CCC[C@@H]1C(C)(C)O2 (relative stereo) [Example 9A, dl-cis-6a,7,8,9,10,10a-Hexahydro-2-hydroxy-6,6-dimethyl-3-(1-methyl-4-phenylbutyl)-10-oxo-6H-dibenzo[b,d]pyran]
ED50 [1, 4]: 10 to 32 mg/kg

CCCCCc1cc2c(cc1O)C1=C(CCC(C)C1)C(C)(C)O2 (centres unmarked) [6,7,8,9-tetrahydro-2-hydroxy-3-n-amyl-6,6,9-trimethyldibenzo[b,d]pyran]
activity in rabbits (rabbits): inactive

CCCCCc1cc(O)c2c(c1)N(C)C(C)(C)C1=C2CC(C)CC1 (centres unmarked) [7,8,9,10-tetrahydro-1-hydroxy-5,6,6,9-tetramethyl-3-n-pentylphenanthridine]
activity in animal pharmacology (animal pharmacology): completely inert

CN1CC[C@]23c4c5ccc(O)c4O[C@H]2[C@@H](O)C=C[C@H]3[C@H]1C5 [Morphine]
MPE50 (printed MPE5 50) [2]: 3.2 to 5.6 mg/kg
MPE50 [3]: 4 to 5.6 mg/kg
